# Test results from patent US20070190651A1, “Myogenic Development and Protection of Stem Cells Against Inflammation and Apoptosis By Statins and Isoprenoid Pathway Inhibitors” (Board of Regents of the University of Texas System, priority 2006, published 2007).
# Entries after “also recorded” stand apart in the source; their conditions may differ. Residues, ends and D or L forms follow the SMILES beside them. *: point of attachment. Cbz = O=C(OCc1ccccc1)*
# How the values were obtained:
# [1] = animals; cited from earlier work
# [2] = tested on: mouse peritoneal macrophages; experiment: TUNEL staining of acLDL-loaded mouse peritoneal macrophages; format: cell-based; settings: for number of TUNEL positive cells: acLDL-preloaded macrophages, agent alone, over incubation time
# Protocol: FIG. 15 is a graph showing TUNEL staining of mouse peritoneal macrophages. Macrophages loaded with acLDL were treated with CP-113,818 (▪), CP-113,818 plus U18666A (♦), or U18666A in medium containing 0.2% BSA (□). After treatment the cells were fixed and nuclear DNA fragments were labeled using a fluorescent TUNEL assay.
# It was tested whether cholesterol accumulation can induce apoptosis in cells treated with the acyl coenzyme-A:cholesterol acyltransferase (ACAT) inhibitor CP-113,818. In situ labeling of DNA fragments were analyzed in murine macrophages treated with the inhibitors using the TUNEL technique. […] Few TUNEL positive cells were detected in untreated control and in cultures treated with CP-113,818 plus U18666A for 24 h. Thus, inhibition of cholesterol transport with U18666A blocked the apoptotic effect of the ACAT inhibitor.
# [3] = tested on: iNOS; experiment: Nitrite production (Griess reaction) in H9c2 cardiac myoblasts; format: cell-based, rat; settings: for effect on nitrite production in cells treated with simvastatin plus IL-1α: added to simvastatin + IL-1α 20 ng/mL
# Protocol: Cell cultures. H9c2 cells purchased from American Type Culture Collection (ATCC, Rockville, Md.) are spontaneously immortalized ventricular myoblasts from the rat embryo, with preservation of several electrical and biochemical characteristics found in adult cardiomyocytes. […] After certain time intervals, 100 μL/well culture media were collected for determination of nitrite production. Assay for NO Production. The activity of iNOS was determined in the culture medium by assaying nitrites, taken as an index of NO production, using the Griess reagent (1% sulphanilic acid and 0.1% N-[1-naphtyl] ethylenediamine-HCl in 5% phosphoric acid) as reported previously (4,18,19). Equal volumes of medium and Griess reagent were mixed, and the purple products quantified spectrophotometrically at 550 nm. Nitrite concentrations were determined from a linear standard curve constructed with known concentrations of sodium nitrite (0 to 40 μmol/L nitrite). Nitrite Assays. Nitrite, a stable end-product of nitric oxide, was measured by using Griess reagent (1% sulphanilic acid and 0.1% N-[1-naphtyl] ethylenediamine-HCl in 5% phosphoric acid). Equal volumes of medium and Griess reagent were mixed, and the resulting purple product quantified by spectrophotometric assay at 550 nm. Nitrite concentrations were calculated from a linear standard curve constructed with known concentrations of sodium nitrite (0-14 μmol/L nitrite) (19).
# [4] = tested on: iNOS; experiment: Immunoblotting for iNOS protein in cytokine-stimulated H9c2 cardiac myoblasts; format: cell-based, rat; settings: for effect on simvastatin inhibition of cytokine-induced iNOS protein expression: added to simvastatin + IL-1α or TNF-α
# Protocol: Cell cultures. H9c2 cells purchased from American Type Culture Collection (ATCC, Rockville, Md.) are spontaneously immortalized ventricular myoblasts from the rat embryo, with preservation of several electrical and biochemical characteristics found in adult cardiomyocytes. They were cultured in DMEM medium (ATCC) supplemented with 10% heat-inactivated fetal bovine serum (FBS) in 95% air and 5% CO2 at 37° C. […] After certain time intervals, 100 μL/well culture media were collected for determination of nitrite production.
# Immunoblotting. Total proteins were isolated from rat cardiac myoblasts (H9c2 cells) or embryonic stem cells in an ice-cold lysis buffer containing 10 mmol/L Tris (tris(hydroxymethyl)aminomethane) (pH 7.4), 1% sodium dodecyl sulfate (SDS) and 1× protease inhibitor (1 mmol/L sodium orthovanadate). Proteins (15 μg/lane) were separated under the reducing conditions (125 mM Tris pH 6.8, 4% SDS, 10% glycerol, 0.006% bromophenol blue, 2% β-mercaptoethanol) by electrophoresis onto 5-10% SDS-polyacrylamide gel and electro-blotted to nitrocellulose membranes (Osmonics, Westborough, Mass.). The membranes were reversibly stained with Ponceau red (Sigma) to verify equal protein loading and/or transfer. After blocking in Tris-buffered saline (0.2 M Tris and 8% NaCl) containing 5% non-fat powdered milk and 0.1% Tween 20 for 1 hour at room temperature, the membranes were incubated overnight at 4° C. with following primary antibodies to (a) iNOS (Transduction Laboratories, Lexington, Ky.; BD Biosciences); (b) NF-κB p65/rel (Santa Cruz Biotechnologies, Santa Cruz, Calif.); (c) ser^32-phosphorylated inhibitor IκBα (Santa Cruz); (d) Bad (BD Biosciences, San Jose, Calif.); (e) Bcl-xL (BD Biosciences); (f) proliferating cell nuclear antigen (PCNA; BC Biosciences); (g) ryanodine receptor (Santa Cruze Biotechnology, Inc., Santa Cruz, Calif.); (h) α-sarcomeric actinin (Sigma); (i) myocardin A (developed by immunizing rabbits with a synthetic myocardin A peptide); (j) Tie-2 (Santa Cruz); (k) manganese superoxide dismutase (Santa Cruz); and (1) β-tubulin (Sigma). The blots were incubated with horseradish peroxidase-coupled secondary antibodies, washed and developed by using a SuperSignal West Pico Chemiluminescent Substrate Kit (Pierce, Rockford, Ill.). Intensity of each immunoreactive protein band was quantified by densitometric analysis. Cytokine-stimulated RAW 264.7 cells (Transduction Laboratories, Lexington, Ky.) were used as positive controls.
# [5] = tested on: hESC-derived EB; experiment: hESC embryoid body formation with proteasomal inhibitor; format: cell-based, human; settings: MG132 at 100 nm in hanging drops, then regular culture 1-2 days
# Protocol: FIG. 13 is a pair of photomicrographs showing hESC-derived EB after treatment with MG132 for 2 days. a, untreated and b, treated.
# To determine whether protein ubiquitination has any impact on EB formation, hESCs were cultured in hanging-drops with the proteasomal inhibitor MG132 at 100 nm, and then plated in regular culture for 1-2 days.
# [6] = tested on: NF-κB p65/RelA; experiment: Immunoblotting for p65/RelA subunit of NF-κB, total cellular or nuclear proteins of H9c2 cells; format: cell-based, rat; settings: Y-27632 10^−4 mol/L
# Protocol: Immunoblotting. Total proteins were isolated from rat cardiac myoblasts (H9c2 cells) or embryonic stem cells in an ice-cold lysis buffer containing 10 mmol/L Tris (tris(hydroxymethyl)aminomethane) (pH 7.4), 1% sodium dodecyl sulfate (SDS) and 1× protease inhibitor (1 mmol/L sodium orthovanadate). Proteins (15 μg/lane) were separated under the reducing conditions (125 mM Tris pH 6.8, 4% SDS, 10% glycerol, 0.006% bromophenol blue, 2% β-mercaptoethanol) by electrophoresis onto 5-10% SDS-polyacrylamide gel and electro-blotted to nitrocellulose membranes (Osmonics, Westborough, Mass.). The membranes were reversibly stained with Ponceau red (Sigma) to verify equal protein loading and/or transfer. […] Intensity of each immunoreactive protein band was quantified by densitometric analysis.
# [7] = tested on: Rho kinase; settings: cited from earlier work
# [8] = tested on: β-adrenergic receptors; experiment: Edge-motion detection of mESC-derived contractile myogenic cells; format: cell-based, murine
# Protocol: FIG. 11 is a series of graphs showing edge-motion detection of mESC-derived contractile myogenic cells untreated (upper) or treated with isoproterenol (10 ng/ml) in the absence (middle) or presence (lower) of propanolol (25 ng/ml).
# hESC grown in DMEM media with 10% fetal bovin serum and a group of growth factors were induced to differentiate in a hang-drop 3D cell culture system. hESCs from two (H1 or H9) lines were cultured with a mouse fetal fibroblast feeder layer. After forming EBs in the hanging-drop 3D system they were replated in 12-well plates. […] Surrounding the beating colonies, the cells developed a blood vessel-like structure (FIG. 10). Using the edge-motion detection technique, a single beating myogenic cell within the developing EBs was recorded. This provides a functional marker showing the differentiational potential in cardiomyogenesis.
smiles,measurement,setting,value
Clc1ccccc1CNCC1CCC(CNCc2ccccc2Cl)CC1 (centres unmarked) [AY 9944],teratogenic effect,[1],holoprosencephalic brain anomalies
O=C(O)c1ccc(CCN2CCN(C/C=C/c3ccc(Cl)cc3)CC2)cc1 [BM 15766],teratogenic effect,[1],holoprosencephalic brain anomalies
"CCCCCCCC[C@H](SCCCCCC)C(=O)Nc1c(SC)cc(C)nc1SC [CP-113,818]",number of TUNEL positive cells,[2],increase in the number of TUNEL positive cells
"CC(C)=CCC/C(C)=C/CC/C(C)=C/COP(=O)(O)OP(=O)(O)O [FPP, farnesylpyrophosphate]",effect on nitrite production in cells treated with simvastatin plus IL-1α,[3],did not alter nitrite accumulation
"CC(C)=CCC/C(C)=C/CC/C(C)=C/CC/C(C)=C/COP(=O)(O)OP(=O)(O)O [GGPP, geranylgeranylpyrophosphate]",effect on simvastatin inhibition of cytokine-induced iNOS protein expression,[4]; H9c2,reversed the simvastatin-mediated suppression; also recorded: prevented the inhibitory effect of simvastatin; also recorded: attenuates the simvastatin inhibitory effect
same,effect on nitrite production in cells treated with simvastatin plus IL-1α,[3],attenuates the simvastatin inhibitory effect; also recorded: reversed the simvastatin-mediated suppression
CC(C)C[C@@H](C=O)NC(=O)[C@H](CC(C)C)NC(=O)[C@H](CC(C)C)NC(=O)OCc1ccccc1 [MG132] (Cbz-Leu-Leu-Leu-aldehyde),EB morphology / cell differentiation,[5],spread out and surrounded by differentiated cells
same,EB morphology / cell differentiation,[5]; listed as MG-132,helped the cell differentiation
CCN(CC)CCO[C@H]1CC[C@@]2(C)C(=CC[C@@H]3[C@@H]2CC[C@]2(C)C(=O)CC[C@@H]32)C1 [U18666A],"number of TUNEL positive cells with CP-113,818 co-treatment","[2]; U18666A simultaneously with CP-113,818",greatly reduced
same,number of TUNEL positive cells,[2],no effect on the number of cells bearing this marker of apoptosis
C[C@@H](N)[C@H]1CC[C@H](C(=O)Nc2ccncc2)CC1 [Y-27632],effect on simvastatin inhibition of cytokine-induced iNOS protein expression,[4]; H9c2,almost abolished the inhibitory effect of simvastatin
same,cytokine-induced iNOS protein expression in the absence of simvastatin,"[4]; H9c2, cytokine-stimulated, no simvastatin",did not alter cytokine-induced iNOS protein expression
same,nitrite production (iNOS activity) in cytokine-treated cells,"[3]; IL-1α, Y-27632 10^−6 to 10^−5 mol/L, no simvastatin",enhances NO production; also recorded: dose-dependently increased the iNOS activity
same,effect on nitrite production in cells treated with simvastatin plus IL-1α,[3],reversal of the statin-induced nitrite reduction; also recorded: reversed the statin inhibitory effect on iNOS activities
same,nuclear NF-κB (p65) translocation in presence of IL-1α,[6],no major effect on the nuclear NF-κB translocation
CC(C)c1c(C(=O)Nc2ccccc2)c(-c2ccccc2)c(-c2ccc(F)cc2)n1CC[C@@H](O)C[C@@H](O)CC(=O)O [atorvastatin],Rho kinase activity,[7],inhibit the Rho kinase activity
CC(C)CCC[C@@H](C)[C@H]1CC[C@H]2[C@@H]3CC=C4C[C@@H](O)CC[C@]4(C)[C@H]3CC[C@]12C [cholesterol],effect of exogenous cholesterol on the statin effect on iNOS expression,[4],does not prevent the statin effect
CC(C)NCC(O)c1ccc(O)c(O)c1 (centres unmarked) [isoproterenol],contraction of beating myocytes,"[8]; mESC-derived EBs, isoproterenol 10 ng/ml",marked increased contraction in both frequency and ampltitute
CC(C)NCC(O)COc1cccc2ccccc12 (centres unmarked) [propanolol],effect on isoproterenol stimulation of contraction,[8]; propanolol 25 ng/ml with isoproterenol 10 ng/ml,almost abolished the isoproterenol stimulatory effect
CCN(CC)CCOc1ccc(C(O)(Cc2ccc(Cl)cc2)c2ccc(C)cc2)cc1 (centres unmarked) [triparanol],teratogenic effect,[1],holoprosencephalic brain anomalies
